{"source": "patent US9623031B2", "about": "“Compositions, methods and kits for treating cancer” (priority 2011, dated 2017)", "key": {"[1]": {"test_system": "LSCs", "experiment": "Apoptosis of LSCs as summarised in the discussion (model not specified or both models)", "format": "cell-based, mouse", "procedure": "Apoptosis of LSCs was performed using annexin V as described below in Supplementary Information and Methods.\nThe LSCs were diluted in DMEM, resuspended using a 16-gauge needle, and collected by centrifugation. 1×10^5 cells were resuspended in 200 μl of binding buffer (0.1 M HEPES with 1.4 M NaCl, 25 mM CaCl2, pH 7.4). Annexin V FITC (BD Biosciences) was incubated with cells for 15 min on ice followed by flow cytometric analysis."}, "[2]": {"test_system": "residual BCR-ABL LSCs", "experiment": "Secondary transplants from treated BCR-ABL mice (residual LSCs)", "format": "in vivo, mouse", "description": "Secondary transplants to test for residual LSCs after treatment with Δ^12-PGJ3: For the CML model, B6.SJLPtprca Pep3b/BoyJ (CD45.1^+) mice were treated with 5-FU and bone marrow cells enriched in cycling HSCs were isolated followed by infection with MIGR-BCR-ABL virus or control MSCV-GFP virus as described above. The cells were transplanted into C57BL/6 (CD45.2) recipient mice as mentioned earlier. The mice were treated with Δ^12-PGJ3 or vehicle control as indicated. Two weeks after treatment, spleen cells were isolated and transplanted into irradiated secondary C57BL/6 (CD45.2) recipients as described above. Two weeks after secondary transplant, mice were analyzed for WBC counts, splenomegaly and the presence of GFP^+ or CD45.1 donor cells in the bone marrow and spleen by flow cytometry. Secondary transplants were also done with FV infected mice treated with Δ^12-PGJ3 or vehicle control. BALB/c mice were infected with Friend virus as described above. The mice were treated with Δ^12-PGJ3 or vehicle control as indicated. Two weeks after treatment, spleen cells isolated from FV-infected mice and transplanted into BALB/c-Stk^−/− recipient mice (1×10^5 cells per mouse). Five weeks post transplant, the mice with secondary transplants were tested for WBC counts, splenomegaly and for the presence of M34^+Kit^+Sca1^+FV-LSCs by flow cytometry."}, "[3]": {"test_system": "p53", "experiment": "p53 expression in FV-LSCs treated ex vivo (RT-PCR, nuclear extracts)", "format": "cell-based, mouse", "conditions": "12 h"}, "[4]": {"test_system": "murine erythroleukemia (MEL) cells", "experiment": "MEL cell apoptosis and viability (MTT, CCK-8)", "format": "cell-based, mouse", "description": "Cell culture. Murine erythroleukemia (MEL) cells were cultured in DMEM with 10% FBS. In order to examine the production 3-series PGs, BALB/c-derived RAW264.7 macrophage-like cells (ATCC) were cultured in DMEM containing 5% FBS, 250 nM sodium selenite, and 50 μM EPA (as BSA conjugate) for 72 h followed by stimulation with E. coli endotoxin lipopolysaccharide (LPS; Serotype 0111B4; 50 ng/ml) for 30 min. The cells were cultured in fresh DMEM for an additional 24-144 h. Cells cultured with cell culture-grade fatty acid free BSA (Sigma Aldrich) served as a control. Culture media was withdrawn at various times and analyzed for 3-series PGs as described below. Total RNA was isolated from cells or tissues using Trizol reagent as per the instructions of the supplier (Invitrogen, Carlsbad, Calif.) and cDNA was prepared using a High Capacity cDNA Reverse Transcriptase kit (Applied Biosystems, Foster City, Calif.). Semiquantitative RT-PCR for p53 and β-actin was performed with primers as described in Supplementary Methods. Nuclear and cytoplasmic protein extracts of LSCs were prepared using standard methods previously described (Vunta H et al., J Biol Chem. 2007; 282:17964-17973).\nCell viability studies. MEL cells were cultured in DMEM containing 10% FBS and treated with various commonly used anti-leukemic drugs such as daunorubicin (DNR), mitoxantrone (MIT), and cytarabine (CYT) at a final concentration […] for 24 h. […] After 24 h of drug treatment, cell proliferation was measured by MTT assay with CCK-8 kit from Dojindo Molecular Technologies, Inc. (Gaithersburg, Md.). All viability values reported are relative to untreated cells (UT) that was designated to be 100%. Results represent the mean±SEM of three independent observations.\nIn order to address whether MEL cells are resistant in general to chemotherapy agents, we tested whether MEL cells can be killed by apoptosis when treated with standard anti-leukemia drugs. Treatment with various commonly used anti-leukemic drugs such as daunorubicin (DNR), mitoxantrone (MIT), and cytarabine (CYT) at a final concentration 1 μM for 24 h. […] After 24 h of drug treatment, cell proliferation was measured by MTT assay with CCK-8 kit from Dojindo Molecular Technologies, Inc. (Gaithersburg, Md.). […] The results represent the mean±SEM of three independent observations."}, "[5]": {"test_system": "primary human AML cells; LSCs (CD34+CD38−CD123+)", "experiment": "Apoptosis of primary human AML cells and AML LSCs (annexin V)", "format": "cell-based", "description": "In this experiment, 110,000/well primary AML cells were cultured in above specified media for 6 and 12 hrs. Cells were collected and washed once with ice cold PBS. The cells were resuspended in 200 ul 1× Apoptosis buffer with annexin-V PE to all tubes. The cells were washed in PBS and resuspended in 600 ul PBS and transfer into flow tubes and analyzed for apoptosis (Annexin V+ cells) on FC-500. […] In this experiment, 110,000/well AML cells were cultured in earlier mentioned media for 6 and 12 hrs. Cells were collected and washed once in PBS and resuspended in 200 ul PBS and blocked with FC receptor antibody 10 mins RT. The following antibodies were added: CD38, CD123, CD34, CD117 (BD bioscience) for 1 hr on ice. Cells were washed in PBS once and resuspended in 200 ul of apoptotic buffer, and annexin V was added and incubated for 15 mins. Apoptotic cells (Annexin V+ cells) were counted by flow cytometry. […] Cells were collected and washed once in PBS and resuspended in 200 ul PBS and blocked with FC receptor antibody 10 mins RT. The following antibodies were added: CD38, CD123, CD34 (BD bioscience) for 1 hr on ice. Cells were washed in PBS once and resuspended in 200 ul of apoptotic buffer, and annexin V was added and incubated for 15 mins. Apoptotic cells (Annexin V+ cells) were counted by flow cytometry.\nReferring to the results shown in FIG. 16, these experiments were performed with primary AML stem cells isolated from a patient. […] In an identical experiment, the cells were also treated with a synthetic DP agonist, ZK118182 (100 nM). Apoptosis of cells (by annexin V staining) was measured using flow cytometry."}}, "note": "Entries after “also recorded” stand apart in the source; their conditions may differ."}
{"smiles": "CC/C=C\\C[C@H](O)C/C=C1/C(=O)C=C[C@@H]1C/C=C\\CCCC(=O)O", "note": "[Δ^12-PGJ3, Δ^12-prostaglandin J3]", "values": [{"measurement": "targeting of LSCs for apoptosis", "setting": "[1]; FV-induced leukemia and BCR-ABL+ retrovirus-based murine CML model", "result": "targeted LSCs for apoptosis"}, {"measurement": "IC50", "setting": "[1]; LSC type not specified, read-out: IC50, concentration required to cause apoptosis of LSCs", "result": 7, "unit": "nM"}, {"measurement": "Kit+Sca1+GFP+ LSCs in spleen of secondary recipients", "setting": "[2]; donor cells from treated mice", "result": "lacked Kit^+Sca1^+GFP^+ cells"}, {"measurement": "splenomegaly and WBC counts in secondary recipients", "setting": "[2]; donor spleen cells from treated mice, two weeks after secondary transplant", "result": "failed to develop splenomegaly or high WBC counts"}, {"measurement": "p53 expression at transcript level", "setting": "[3]; 10 or 25 nM", "result": "significant upregulation of p53 expression"}, {"measurement": "nuclear levels of p53 protein", "setting": "[3]; sorted LSC", "result": "increase in the nuclear levels of p53 protein"}, {"measurement": "apoptosis of MEL cells (lack functional p53)", "setting": "[4]", "result": "cannot induce apoptosis; also recorded: failed to initiate apoptosis"}, {"measurement": "apoptosis of AML LSCs (Annexin V+ fraction of CD34+CD38−CD123+ cells)", "setting": "[5]; 100 nM, 6 h, patients #100810, #123009, #033107, #041909, #101308", "result": "targeted the LSCs in all these samples"}, {"measurement": "apoptosis of primary human AML cells (Annexin V+)", "setting": "[5]; 100 nM, 6 and 12 hrs", "result": "induces apoptosis of primary human AML cells"}, {"measurement": "apoptosis of primary AML cells from bone marrow of an AML patient (72% CD133+)", "setting": "[5]; 5, 50, 100 nM, 6 and 24 h, annexin V", "result": "effective even in human primary leukemia stem cells"}]}
